From ChEMBL document CHEMBL4818987, “Recent advances of podophyllotoxin/epipodophyllotoxin hybrids in anticancer activity, mode of action, and structure-activity relationship: An update (2010-2020)” (Eur J Med Chem, 2020)

Experiments:
[1] = test system: A549; test: Antiproliferative activity against human A549 cells incubated for 48 hrs by MTT assay; format: functional, cell-based; settings: A549, 48 h
[2] = test system: MCF7; test: Antiproliferative activity against human MCF7 cells incubated for 48 hrs by MTT assay; format: functional, cell-based; settings: MCF7, 48 h
[3] = test system: BGC-823; test: Antiproliferative activity against human BGC-823 cells incubated for 48 hrs by MTT assay; format: functional, cell-based; settings: BGC-823, 48 h
[4] = test system: HeLa; test: Potency index, ratio of etoposide IC50 to test compound IC50 for antiproliferative activity against human HeLa cells; format: functional
[5] = test system: A549; test: Potency index, ratio of etoposide IC50 to test compound IC50 for antiproliferative activity against human A549 cells; format: functional
[6] = test system: MCF7; test: Potency index, ratio of etoposide IC50 to test compound IC50 for antiproliferative activity against human MCF7 cells; format: functional
[7] = test system: BGC-823; test: Potency index, ratio of etoposide IC50 to test compound IC50 for antiproliferative activity against human BGC-823 cells; format: functional
[8] = test system: Huh-7; test: Antiproliferative activity against human Huh7 cells incubated for 48 hrs by MTT assay; format: functional, cell-based; settings: Huh-7, 48 h
[9] = test system: Huh-7; test: Potency index, ratio of etoposide IC50 to test compound IC50 for antiproliferative activity against human Huh-7 cells; format: functional
[10] = test system: K562; test: Cytotoxicity against human K562 cells by MTT assay; format: functional, cell-based
[11] = test system: K562/A02; test: Cytotoxicity against human K562/A02 cells by MTT assay; format: functional, cell-based
[12] = test system: HeLa; test: Antiproliferative activity against human HeLa cells incubated for 48 hrs by MTT assay; format: functional, cell-based
[13] = test system: A549; test: Antiproliferative activity against human A549 cells incubated for 24 hrs by MTT assay; format: functional, cell-based; settings: A549, 24 h
[14] = test system: HeLa; test: Antiproliferative activity against human HeLa cells incubated for 24 hrs by MTT assay; format: functional, cell-based
[15] = Selectivity ratio of IC50 for human L02 cells to IC50 for human Calu-1 cells; format: toxicity; settings: L02 cells / Calu-1 cells, read-out: Ratio IC50
[16] = Selectivity ratio of IC50 for human L02 cells to IC50 for human HeLa cells; format: toxicity; settings: read-out: Ratio IC50
[17] = Selectivity ratio of IC50 for African green monkey Vero cells to IC50 for human A549 cells; format: toxicity; settings: read-out: Ratio IC50
[18] = Selectivity ratio of IC50 for African green monkey Vero cells to IC50 for human Calu-1 cells; format: toxicity; settings: Vero cells / Calu-1 cells, read-out: Ratio IC50
[19] = test system: Calu-1; test: Antiproliferative activity against human Calu-1 cells incubated for 24 hrs by MTT assay; format: functional, cell-based; settings: Calu-1, 24 h
[20] = Selectivity ratio of IC50 for African green monkey Vero cells to IC50 for human HeLa cells; format: toxicity; settings: read-out: Ratio IC50
[21] = test system: Vero; test: Cytotoxicity against African green monkey Vero cells; format: cell-based; settings: Chlorocebus sabaeus
[22] = test system: L02; test: Cytotoxicity against human L02 cells; format: cell-based
[23] = Selectivity ratio of IC50 for human L02 cells to IC50 for human A549 cells; format: toxicity; settings: read-out: Ratio IC50
[24] = Cytotoxicity against human MUM-2B cells incubated for 72 hrs by CCK8 assay; format: functional, cell-based
[25] = Cytotoxicity against human C918 cells incubated for 72 hrs by CCK8 assay; format: functional, cell-based; settings: C918, 72 h
[26] = test system: HeLa; test: Cytotoxicity against human HeLa cells by MTT assay; format: functional, cell-based
[27] = Resistance index, ratio of IC50 for human K562/AO2 cells to IC50 for human K562 cells; format: functional
[28] = test system: SW480; test: Antiproliferative activity against human SW480 cells incubated for 48 hrs by MTT assay; format: functional, cell-based; settings: SW480, 48 h
[29] = test system: SMMC-7721; test: Antiproliferative activity against human SMMC-7721 cells incubated for 48 hrs by MTT assay; format: functional, cell-based; settings: SMMC-7721, 48 h
[30] = test system: HL-60; test: Antiproliferative activity against human HL-60 cells incubated for 48 hrs by MTT assay; format: functional, cell-based; settings: HL-60, 48 h
[31] = test system: SMMC-7721; test: Potency index, ratio of cisplatin IC50 to test compound IC50 for antiproliferative activity against human SMMC7721 cells; format: functional
[32] = test system: A549; test: Potency index, ratio of cisplatin IC50 to test compound IC50 for antiproliferative activity against human A549 cells; format: functional
[33] = test system: MCF7; test: Potency index, ratio of cisplatin IC50 to test compound IC50 for antiproliferative activity against human MCF7 cells; format: functional
[34] = test system: SW480; test: Potency index, ratio of cisplatin IC50 to test compound IC50 for antiproliferative activity against human SW480 cells; format: functional
[35] = test system: HL-60; test: Potency index, ratio of cisplatin IC50 to test compound IC50 for antiproliferative activity against human HL-60 cells; format: functional
[36] = test system: K562; test: Cytotoxicity against human K562 cells by SRB assay; format: functional, cell-based
[37] = test system: K562/A02; test: Cytotoxicity against human K562/A02 cells by SRB assay; format: functional, cell-based
[38] = test system: KB; test: Cytotoxicity against human KB cells by MTT assay; format: functional, cell-based
[39] = Cytotoxicity against human KBV cells by MTT assay; format: functional, cell-based
[40] = test system: HepG2; test: Antiproliferative activity against human HepG2 cells incubated for 48 hrs by MTT assay; format: functional, cell-based; settings: HepG2, 48 h
[41] = test system: MCF7; test: Antiproliferative activity against human MCF7 cells incubated for 24 hrs by MTT assay; format: functional, cell-based; settings: MCF7, 24 h
[42] = Cytotoxicity against PBMC (unknown origin) incubated for 24 hrs by CCK8 assay
[43] = test system: L02; test: Cytotoxicity against human L02 cells incubated for 24 hrs by CCK8 assay; format: functional, cell-based; settings: L02, 24 h
[44] = test system: L02; test: Cytotoxicity against human HL7702 cells incubated for 48 hrs by MTT assay; format: cell-based; settings: L02, 48 h

## COc1cc([C@@H]2c3cc4c(cc3[C@@H](Nc3ncccc3F)[C@H]3COC(=O)[C@H]23)OCO4)cc(OC)c1O
[1]
  IC50: 60 nM
[2]
  IC50: 60 nM
[3]
  IC50: 60 nM
[4]
  Ratio IC50: 3.3
[5]
  Ratio IC50: 3.3
[6]
  Ratio IC50: 3.3
[7]
  Ratio IC50: 3.3
[8]
  IC50: 60 nM
[9]
  Ratio IC50: 3.3

## COc1cc([C@@H]2c3cc4c(cc3[C@@H](NC(=O)C(=O)c3c[nH]c5ccc(C(=O)NC(C)C)cc35)[C@H]3COC(=O)[C@H]23)OCO4)cc(OC)c1OC
[10]
  IC50: 1270 nM
[11]
  IC50: 1270 nM

## COc1cc([C@@H]2c3cc4c(cc3[C@@H](Nc3ncccc3F)[C@H]3COC(=O)[C@H]23)OCO4)cc(OC)c1OC
[12]
  IC50: 60 nM
[1]
  IC50: 60 nM
[2]
  IC50: 60 nM
[3]
  IC50: 60 nM
[4]
  Ratio IC50: 3.3
[5]
  Ratio IC50: 3.3
[6]
  Ratio IC50: 3.3
[7]
  Ratio IC50: 3.3
[8]
  IC50: 60 nM
[9]
  Ratio IC50: 3.3

## COc1cc([C@@H]2c3cc4c(cc3[C@H](OC(=O)CCCCC3CCSC(c5ccc(C(F)(F)F)cc5)S3)[C@H]3COC(=O)[C@H]23)OCO4)cc(OC)c1OC (some centres not stated)
[13]
  IC50: 2680 nM
[14]
  IC50: 2680 nM
[15]
  selectivity ratio: ≥ 9.7
[16]
  selectivity ratio: ≥ 9.7
[17]
  selectivity ratio: ≥ 9.7
[18]
  selectivity ratio: ≥ 9.7
[19]
  IC50: 2680 nM
[20]
  selectivity ratio: ≥ 9.7
[21]
  IC50: > 93800 nM
[22]
  IC50: > 93800 nM
[23]
  selectivity ratio: ≥ 9.7

## COc1cc(/C=C/c2ccc(OCCC(=O)O[C@H]3c4cc5c(cc4[C@@H](c4cc(OC)c(OC)c(OC)c4)[C@H]4C(=O)OC[C@@H]43)OCO5)cc2)cc(OC)c1
[24]
  IC50: 81 nM
[25]
  IC50: 81 nM

## COc1cc([C@@H]2c3cc4c(cc3[C@H](OC(=O)CCCCC3CCSC(c5cccc(C(F)(F)F)c5)S3)[C@H]3COC(=O)[C@H]23)OCO4)cc(OC)c1OC (some centres not stated)
[13]
  IC50: 2680 nM
[14]
  IC50: 2680 nM
[15]
  selectivity ratio: ≥ 9.7
[16]
  selectivity ratio: ≥ 9.7
[17]
  selectivity ratio: ≥ 9.7
[18]
  selectivity ratio: ≥ 9.7
[19]
  IC50: 2680 nM
[20]
  selectivity ratio: ≥ 9.7
[21]
  IC50: > 93800 nM
[22]
  IC50: > 93800 nM
[23]
  selectivity ratio: ≥ 9.7

## COc1cc([C@@H]2c3cc4c(cc3[C@@H](c3c[nH]c5ccc(OCc6ccc(C(C)(C)C)cc6)cc35)[C@H]3COC(=O)[C@H]23)OCO4)cc(OC)c1OC
[26]
  IC50: > 260 nM
[10]
  IC50: > 260 nM
[11]
  IC50: 289 nM
[27]
  Ratio IC50: 0.004

## COc1cc([C@@H]2c3cc4c(cc3[C@H](OC(=O)CCCCC3CCSC(c5ccc(C)cc5)S3)[C@H]3COC(=O)[C@H]23)OCO4)cc(OC)c1OC (some centres not stated)
[13]
  IC50: 2680 nM
[14]
  IC50: 2680 nM
[15]
  selectivity ratio: ≥ 9.7
[16]
  selectivity ratio: ≥ 9.7
[17]
  selectivity ratio: ≥ 9.7
[18]
  selectivity ratio: ≥ 9.7
[19]
  IC50: 2680 nM
[20]
  selectivity ratio: ≥ 9.7
[21]
  IC50: > 93800 nM
[22]
  IC50: > 93800 nM
[23]
  selectivity ratio: ≥ 9.7

## CCCC(=O)O[C@@H]1[C@@H](OC(=O)CCC)[C@@H](O[C@@H]2c3cc4c(cc3[C@@H](c3cc(OC)c(OC)c(OC)c3)[C@H]3C(=O)OC[C@@H]32)OCO4)OC[C@H]1OC(=O)CCC
[1]
  IC50: > 2900 nM
[2]
  IC50: > 2900 nM
[28]
  IC50: > 2900 nM
[29]
  IC50: > 2900 nM
[30]
  IC50: 140 nM
[31]
  Ratio IC50: 1.9
[32]
  Ratio IC50: 1.9
[33]
  Ratio IC50: 1.9
[34]
  Ratio IC50: 1.9

## COc1cc([C@@H]2c3cc4c(cc3[C@@H](n3cc(COC[C@H]5O[C@@H](OCc6cn([C@@H]7c8cc9c(cc8[C@@H](c8cc(OC)c(O)c(OC)c8)[C@H]8C(=O)OC[C@@H]87)OCO9)nn6)[C@H](OC(C)=O)[C@@H](OC(C)=O)[C@@H]5OC(C)=O)nn3)[C@H]3COC(=O)[C@H]23)OCO4)cc(OC)c1O
[1]
  IC50: 14000 nM
[2]
  IC50: 14000 nM
[28]
  IC50: 14000 nM
[29]
  IC50: 14000 nM
[30]
  IC50: 14000 nM
[31]
  Ratio IC50: 2.8
[32]
  Ratio IC50: 2.8
[33]
  Ratio IC50: 2.8
[34]
  Ratio IC50: 2.8
[35]
  Ratio IC50: 2.8

## CCCC(=O)O[C@@H]1[C@@H](OC(=O)CCC)[C@H](OCc2cn([C@@H]3c4cc5c(cc4[C@@H](c4cc(OC)c(O)c(OC)c4)[C@H]4C(=O)OC[C@@H]43)OCO5)nn2)O[C@H](COCc2cn([C@@H]3c4cc5c(cc4[C@@H](c4cc(OC)c(O)c(OC)c4)[C@H]4C(=O)OC[C@@H]43)OCO5)nn2)[C@H]1OC(=O)CCC
[1]
  IC50: 14000 nM
[2]
  IC50: 14000 nM
[28]
  IC50: 14000 nM
[29]
  IC50: 14000 nM
[30]
  IC50: 14000 nM
[31]
  Ratio IC50: 2.8
[32]
  Ratio IC50: 2.8
[33]
  Ratio IC50: 2.8
[34]
  Ratio IC50: 2.8
[35]
  Ratio IC50: 2.8

## COC(=O)c1cccc2c1c(C(=O)C(=O)N[C@@H]1c3cc4c(cc3[C@@H](c3cc(OC)c(OC)c(OC)c3)[C@H]3C(=O)OC[C@@H]31)OCO4)cn2C(=O)c1ccccc1
[36]
  IC50: 150 nM
[37]
  IC50: 150 nM
[26]
  IC50: 150 nM
[38]
  IC50: 3160 nM
[39]
  IC50: 150 nM

## COc1cc([C@@H]2c3cc4c(cc3[C@H](O)[C@H]3COC(=O)[C@H]23)OCO4)cc(OC)c1OC [PODOFILOX]
[1]
  IC50: 4310 nM
[40]
  IC50: 4310 nM
[3]
  IC50: 4310 nM
[13]
  IC50: 2130 nM
[41]
  IC50: 2130 nM
[14]
  IC50: 2130 nM
[42]
  IC50: 5020 nM
[43]
  IC50: 2970 nM
[44]
  IC50: 4310 nM
[19]
  IC50: 2680 nM
[21]
  IC50: 1040 nM
[22]
  IC50: 3160 nM

## CC[C@]1(O)C[C@H]2CN(CCc3c([nH]c4ccccc34)[C@@](C(=O)OC)(c3cc4c(cc3OC)N(C=O)[C@H]3[C@@](O)(C(=O)OC)[C@H](OC(C)=O)[C@]5(CC)C=CCN6CC[C@]43[C@@H]65)C2)C1 [VINCRISTINE]
[39]
  IC50: 50300 nM
